# Measurements taken from US5132291A, “Antivirals and methods for increasing the antiviral activity of AZT” (priority 1989, dated 1992).
# Where two headings read alike, the source gives them in different places.
# Tests used:
# [1] = test system: SAH hydrolase; assay: SAH hydrolase inhibition; format: biochemical
# Procedure: The effect of incubation time and AICA riboside concentration on SAH hydrolase activity was determined as follows. Five samples of SAH hydrolase were incubated at the following AICA riboside concentrations: 0, 10, 25, 50 and 100 μM. The incubation buffer consisted of 25 mM potassium phosphate pH 7.0, 1 mM EDTA, 1 mM, DTT and 0.04% BSA. The total enzyme added to incubation mixture was 10 μg. At indicated times, 10 μl of sample was withdrawn and assayed in the following assay system: 25 mM potassium phosphate, pH 7.0, 40 mM DL-Homocysteine, 1 mM EDTA, 1 mM DTT, 10 μM EHNA, 0.1% BSA and 10 μM U-^14 C Adenosine (590 m Ci/mmole). The reaction was stopped by adding 15 μl of 30% TCA. The samples were then centrifuged and 15 μl were removed and applied to Kodak cellulose 13254 TLC plates along with SAH and adenosine markers. The plates were then developed in a solvent system of 1-butanol:methanol:H2 O:ammonium hydroxide (60:20:20:2). The adenosine and S-adenosyl homocysteine were visualized under UV light and the spots were cut from the plate. Radioactivity of the spots was determined by liquid scintillation spectrometry. From a plot of the reciprocal of Kinactivation vs. 1/AICA riboside concentration the values of Ki (X-intercept) and Kmax (Y-intercept), were determined (FIG. 10(b)).
# [2] = test system: BAG vector pseudotyped by MA (amphotrophic murine leukemia virus); assay: U937/BAG+MA colony resistance assay titered on 208F rat fibroblasts; format: cell-based; details: 0.01 μM AZT
# Procedure: A second, similar assay system was utilized in which a human macrophage line (U937) carrying the BAG retroviral vector construct (having neomycin resistance and beta-galactosidase marker genes), Cepko, PNAS, Vol. 84, p. 156-160 (1987), was infected with MA (amphotrophic MLV [murine leukemia virus]). MA was used to pseudotype the replication-defective BAG vector, which was then titered on 208F cells. According to this assay, the results of which are shown in FIG. 1c, 0.01 μM AZT and 500 μM AICA riboside were both effective against murine retroviruses. […]
# (§1) In this colony-forming bioassay for the characterization of antiviral compounds against retroviruses, a replication-defective retroviral vector construct having the ability to confer neomycin-resistance (U937/BAG or N2) is psuedotyped, infects a single cell, and under neomycin selection, allows the recipient cell to form a colony. Since each infection yields a neomycin-resistant cell capable of producing a discrete group of cells, colonies can be counted, resulting in a linear relationship between the number of colonies and the first order of virus concentration. […]
# After drying, the plates were stained with 2 ml of 1:20 Glemsa (Sigma) for 1 hour. […] All colonies containing 50 or more cells were scored.
# [3] = test system: HIV-1; assay: HIV syncitial forming assay using CEM-SS cells; format: cell-based; details: AZT 0.01 μM and 0.1 μM, 24 hour preincubation before HIV infection
# Text: The following cytomorphologic infectivity bioassay was used to characterize antiviral activity against HIV-1. In the following assay a single infectious unit of virus infects a single cell and initiates a focal expression of that infection, i.e., a syncitium. Since a single infectious unit leads to a discrete response, a linear relationship exists between the number of virally-induced cytopathic effects and the first order of virus concentration. Application of this procedure in assays for virus inactivation allows for evaluation of the candidate antiviral agent.
# CEM-SS (syncitium-sensitive Leu 3a-positive CEM cell line) cells were grown in RPMI 1640 cell culture media (Irvine Scientific) supplemented with 10% heat-inactivated fetal bovine serum (Gemini Bioproducts) and 1% […] glutamine (Gibco). Log-phase cells were split 1:2 with the growth medium the day prior to setting up the assay to standardize plating conditions and to assure a population of logarithmically growing cells. Ninety-six-well plates (Costar) were pretreated with 50 μl of 50 μg/ml poly-1-lysine (MW=295,000 Sigma) "PLL") and were left at room temperature for 60 minutes. Residual PLL was removed with two washes of PBS. The plates were stored in the incubator until used.
# On the day of the assay, the cells were counted and enough cells were harvested to plate each well with 5.0×10^4 cells per well in a volume of 200 μl (or 20 ml of […] was appropriate for each 96-well microtitre plate).
# The cells were plated out on the PLL pre-treated microtitre plates at 5.0×10^4 cells/well in a volume of 200 μl. After allowing attachment for 30 minutes at 37° C. and 5% CO2, the antiviral agent(s) were added in the noted amounts and the treated plates were pre-incubated for 24 hours.
# The HIV-1 virus stock (isolated from infected H-9 cells) was diluted in growth medium to yield 100 SFU (syncytial-forming units) per well. Diluted HIV-1 virus, 20 μl, was added to appropriate wells. All the plates were then incubated for 5 days at 37° C. and 5% CO2. On day 5 post-infection, the cells were given a 100 μl media change. […]
# [4] = test system: N2 virus (replication-defective murine leukemia virus construct); assay: N2 colony resistance assay on 208F rat fibroblasts; format: cell-based; details: 0.01 μM AZT compared with 500 μM AICA riboside
# Text: As described in Example Two, several retroviral assay systems were utilized to test the antiviral activity of various purine nucleoside compounds. One assay system employed a replication-defective murine leukemia virus construct "N2") containing a selectable marker (the neomycin resistance gene). The N2 virus construct is present in the producer or "helper" cell line also called N2 which contains a second retroviral construct that encodes for the production of the retrovirus proteins necessary for packaging and which can, therefore, psuedotype the N2 vector into an infective amphotrophic murine retrovirus. […]
# as §1
# Neomycin selection (500 μg/ml) was begun the next day and continued for eight days post-infection, changing the media three times per week. […] All colonies with 50 or more aggregate cells were counted.
# [5] = test system: HIV; assay: HIV syncitial forming assay using SupT-1 cells; format: cell-based
# Procedure: The assay was performed following the procedure described in Example Three except that SupT-1 cells were used. Using the SupT-1 cells, the medium was not changed at day 5 post-infection and the syncitia were counted at day 5 post-infection at 40X. The results are plotted in FIGS. 5, 6(b), and 7.
# [6] = cited from earlier work
# [7] = test system: peripheral blood macrophages; details: cited from earlier work
# [8] = test system: AIDS virus; details: cited from earlier work
compound,measurement,setting,value
NC(=O)c1nc[nH]c1N [AICA],inhibition of SAH hydrolase,[1],very potent inhibitors
same,inhibition of SAH hydrolase,[1]; even at a concentration as low as 10 μM,potent inhibitors
"Cc1cn([C@H]2C[C@H](N=[N+]=[N-])[C@@H](CO)O2)c(=O)[nH]c1=O [AZT, 3'azido-3'deoxythymidine]",effectiveness against murine retroviruses,[2],effective
same,antiviral effect (number of syncitia),[3],antiviral effects
same,antiviral activity (neomycin-resistant colonies),[4],somewhat better antiviral activity than 500 μM AICA riboside
same,effectiveness against the AIDS virus (prevention of syncitial formation),"[5]; AZT 0.01 μM-1 μM, 7200 min",less than 100%
same,inhibition at 10 µM,"[5]; Human immunodeficiency virus 1, SUP-T1, 120 h, read-out: effectiveness against the AIDS virus (prevention of syncitial formation)",100%
same,patients with macrocytic anemia,[6]; CD4 (T4) lymphocyte count ≤200/mm^3,up to 45%
same,patients with granulocytopenia,[6]; CD4 count >200/mm^3,up to 40%
same,patients with granulocytopenia,[6]; CD4 count ≤200/mm^3,up to 55%
same,accumulation of AZT nucleotides in macrophages as compared to CEM,[7],nine-fold lower
NC(=O)c1ncn([C@@H]2O[C@H](CO)[C@@H](O)[C@H]2O)n1 [ribavirin],"decrease of phosphorylation of AZT to the mono-, di-, and triphosphate forms",[8]; AIDS infected and uninfected cells,approximately a factor of ten
same,effect on effectiveness of AZT against the AIDS virus,[8]; peripheral blood lymphocytes and H9 cells,reduced the effectiveness of AZT
